Laboratory results as given in publication PMC4225009, “Structure-activity-relationship study of N-acyl-N-phenylpiperazines as potential inhibitors of the Excitatory Amino Acid Transporters (EAATs): improving the potency of a micromolar screening Hit is not truism” (SpringerPlus, 2013).
Read-outs that look alike come from different tables or passages of the source.

How the values were obtained:
human EAAT2 = biological target: T1, human EAAT2 (Homo sapiens, UniProt P43004); experiment: [3H]-D-aspartate uptake assay at HEK293 cells stably expressing human EAAT2; type: cell-based
T1 construct: expressed in transfected cells
Source text: (§1) In total, […] piperazine analogs 2.1-2.40 and 3.1-3.12 were characterized pharmacologically at stable HEK293 cells expressing human EAAT1-3 in a [^3H]-D-aspartate uptake assay, (Jensen & Bräuner-Osborne [2004]) and the results are summarized in Table 1 and Table 2. […] Usually, such findings would lead to the conclusion that the bicyclo-[2.2.1]-heptanyl group occupies a promiscuous hydrophobic pocket, which could be optimized for increased potency. However, upon increasing or decreasing the hydrophobic bulk and/or flexibility, a clear drop in potency was observed (analogs 2.1-2.17, Table 1). […] These findings could open up for the hypothesis that the pocket is indeed not hydrophobic but instead hydrophilic in nature. Upon binding of the hydrophobic alkane group, water molecules are forced out and ligand binding is entropically driven rather than enthalpically. Thus analogs 2.18-2.31, which comprise a hydrophobic group, could be potential inhibitors.
(§2) Analogs 2.22-2.31, 2.36-2.40, 3.3, 3.4, 3.6 and 3.12 were obtained as 5 mg portions pre-dissolved in DMSO from ChemBridge corporation and used directly in the [3H]-Asp-uptake assay.

human EAAT3 = biological target: T2, human EAAT3 (Homo sapiens, UniProt P43005); experiment: [3H]-D-aspartate uptake assay at HEK293 cells stably expressing human EAAT3; type: cell-based
T2 construct: expressed in transfected cells
T2 sequence (P43005 1-524): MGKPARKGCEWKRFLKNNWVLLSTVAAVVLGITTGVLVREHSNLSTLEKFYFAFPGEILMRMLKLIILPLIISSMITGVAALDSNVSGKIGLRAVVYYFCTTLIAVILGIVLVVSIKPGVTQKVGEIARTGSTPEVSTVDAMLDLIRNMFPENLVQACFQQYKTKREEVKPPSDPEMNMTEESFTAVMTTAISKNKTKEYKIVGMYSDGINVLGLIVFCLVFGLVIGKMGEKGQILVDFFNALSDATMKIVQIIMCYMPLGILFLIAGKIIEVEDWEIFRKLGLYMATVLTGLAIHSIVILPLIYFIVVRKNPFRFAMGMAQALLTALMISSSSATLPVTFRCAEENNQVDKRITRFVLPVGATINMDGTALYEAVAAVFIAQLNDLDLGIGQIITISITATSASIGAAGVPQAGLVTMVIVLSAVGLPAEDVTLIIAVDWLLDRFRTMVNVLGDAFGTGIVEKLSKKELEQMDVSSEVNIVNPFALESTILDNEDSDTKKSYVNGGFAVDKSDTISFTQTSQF
Source text: as §1, §2

human EAAT1-3 = experiment: [3H]-D-aspartate uptake assay, statements made for EAAT1-3 together; type: cell-based; conditions: for inhibitory activity at EAAT1-3 (in words): HEK293 cells expressing human EAAT1-3, [3H]-D-aspartate uptake; for drop in inhibitory potency across the subtypes: relative to the lead, EAAT1-3
Source text: as §1, §2

human EAAT1 = biological target: T3, human EAAT1 (Homo sapiens, UniProt P43003); experiment: [3H]-D-aspartate uptake assay at HEK293 cells stably expressing human EAAT1; type: cell-based
T3 construct: expressed in transfected cells
Source text: as §1, §2

[1] = D-aspartate uptake, HEK293 cells stably expressing human EAAT2, analogs 3.1-3.12 (Table 2), read-out: EAAT2 IC50
[2] = D-aspartate uptake, HEK293 cells stably expressing human EAAT3, analogs 3.1-3.12 (Table 2), read-out: EAAT3 IC50
[3] = D-aspartate uptake, HEK293 cells stably expressing human EAAT1, analogs 3.1-3.12 (Table 2), read-out: EAAT1 IC50
[4] = [3H]-D-aspartate uptake, HEK293 cells stably expressing human EAAT2, analogs 1 and 2.1-2.40 (Table 1), read-out: EAAT2 IC50
[5] = [3H]-D-aspartate uptake, HEK293 cells stably expressing human EAAT3, analogs 1 and 2.1-2.40 (Table 1), read-out: EAAT3 IC50
[6] = [3H]-D-aspartate uptake, HEK293 cells stably expressing human EAAT1, analogs 1 and 2.1-2.40 (Table 1), read-out: EAAT1 IC50

T3 sequence (P43003 whole entry): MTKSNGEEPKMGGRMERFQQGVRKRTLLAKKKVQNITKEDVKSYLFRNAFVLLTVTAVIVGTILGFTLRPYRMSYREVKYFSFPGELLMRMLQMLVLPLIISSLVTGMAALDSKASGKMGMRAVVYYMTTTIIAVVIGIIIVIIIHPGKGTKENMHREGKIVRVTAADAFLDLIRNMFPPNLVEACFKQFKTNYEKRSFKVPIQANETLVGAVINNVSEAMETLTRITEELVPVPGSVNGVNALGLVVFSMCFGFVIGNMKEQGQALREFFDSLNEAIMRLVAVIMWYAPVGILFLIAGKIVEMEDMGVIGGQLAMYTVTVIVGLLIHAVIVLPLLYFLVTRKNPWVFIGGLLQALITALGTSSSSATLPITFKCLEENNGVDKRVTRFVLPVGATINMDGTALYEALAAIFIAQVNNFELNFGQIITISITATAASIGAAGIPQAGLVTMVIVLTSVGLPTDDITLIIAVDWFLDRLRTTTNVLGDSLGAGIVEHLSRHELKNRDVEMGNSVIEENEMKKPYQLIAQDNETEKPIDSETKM
T1 sequence (P43004 whole entry): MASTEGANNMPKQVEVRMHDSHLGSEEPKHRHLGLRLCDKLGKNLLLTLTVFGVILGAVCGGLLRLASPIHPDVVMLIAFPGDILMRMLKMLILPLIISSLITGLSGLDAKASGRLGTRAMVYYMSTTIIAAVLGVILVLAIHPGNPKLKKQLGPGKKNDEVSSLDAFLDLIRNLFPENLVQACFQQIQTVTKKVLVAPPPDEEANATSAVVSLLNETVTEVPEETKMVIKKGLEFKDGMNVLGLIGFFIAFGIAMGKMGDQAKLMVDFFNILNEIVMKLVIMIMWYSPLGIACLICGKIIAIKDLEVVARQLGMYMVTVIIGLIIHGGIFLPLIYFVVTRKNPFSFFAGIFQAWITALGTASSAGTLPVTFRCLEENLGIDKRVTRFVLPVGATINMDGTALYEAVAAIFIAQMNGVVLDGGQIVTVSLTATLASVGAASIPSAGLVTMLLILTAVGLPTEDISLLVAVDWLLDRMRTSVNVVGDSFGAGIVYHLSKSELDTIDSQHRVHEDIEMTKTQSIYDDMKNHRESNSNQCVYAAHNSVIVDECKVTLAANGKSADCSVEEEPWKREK

| SMILES | IC50 (human EAAT2; [1]) [µM] | IC50 (human EAAT3; [2]) [µM] | inhibitory activity at EAAT1-3 (in words) (human EAAT1-3) | IC50 (human EAAT1; [3]) [µM] | melting point | IC50 (human EAAT2; [4]) [µM] | IC50 (human EAAT3; [5]) [µM] | drop in inhibitory potency across the subtypes (human EAAT1-3) | IC50 (human EAAT1; [6]) [µM] | IC50 (human EAAT2) [µM] | IC50 (human EAAT3) [µM] | IC50 (human EAAT1) [µM] |
| --- | --- | --- | --- | --- | --- | --- | --- | --- | --- | --- | --- | --- |
| O=C(C1CC2CCC1C2)N1CCN(c2ccc(C(F)(F)F)cc2)CC1 (racemic) [(±)-endo-exo-3.2, (±)-endo-exo-Bicyclo[2.2.1]heptan-2-yl(4-(4-(trifluoromethyl)phenyl)piperazin-1-yl)methanone] | > 300 | > 300 | loss of inhibitory activity | > 300 | 126 to 127 °C (dec.) | – | – | – | – | – | – | – |
| O=C(C1CC2CCC1C2)N1CCN(c2cccc(O)c2)CC1 (racemic) [(±)-endo-exo-3.8, (±)-endo-exo-Bicyclo[2.2.1]heptan-2-yl(4-(3-hydroxyphenyl)piperazin-1-yl)methanone] | > 300 | > 300 | – | > 300 | 187 to 189 °C (dec.) | – | – | – | – | – | – | – |
| O=C(C1CCCCC1)N1CCN(c2cccc(C(F)(F)F)c2)CC1 [2.3, Cyclohexyl(4-(3-(trifluoromethyl)phenyl)piperazin-1-yl)methanone] | – | – | – | – | – | ~100 | ~100 | 5-15 fold | ~100 | – | – | – |
| O=C(c1ccccc1)N1CCN(c2cccc(C(F)(F)F)c2)CC1 [2.11, Phenyl(4-(3-(trifluoromethyl)phenyl)piperazin-1-yl)methanone] | – | – | – | – | – | > 100 | > 100 | 5-15 fold | ~150 | – | – | – |
| O=C(c1ccc2c(c1)OCO2)N1CCN(c2cccc(C(F)(F)F)c2)CC1 [2.12, Benzo[d][1,3]dioxol-5-yl(4-(3-(trifluoromethyl)phenyl)piperazin-1-yl)methanone] | – | – | – | – | 87 to 89 °C | > 100 | > 100 | – | > 100 | – | – | – |
| O=C(N1CCN(c2cccc(C(F)(F)F)c2)CC1)C1(c2ccccc2)CCCC1 [2.14, 1-Phenylcyclopentyl-(4-(3-(trifluoromethyl)phenyl)piperazin-1-yl)methanone] | – | – | – | – | 77 to 79 °C | – | – | – | – | > 300 | > 300 | > 300 |
| O=C(OCc1ccccc1)N1CCN(c2cccc(C(F)(F)F)c2)CC1 [2.32, Benzyl 4-(3-(trifluoromethyl)phenyl)piperazine-1-carboxylate] | – | – | neither the carbamate 2.32 nor the sulfonamide 2.33 analog displayed inhibitory activity | – | – | > 300 | > 300 | – | > 1000 | – | – | – |
| O=S(=O)(c1ccccc1)N1CCN(c2cccc(C(F)(F)F)c2)CC1 [2.33, 1-(Phenylsulfonyl)-4-(3-(trifluoromethyl)phenyl)piperazine] | – | – | neither the carbamate 2.32 nor the sulfonamide 2.33 analog displayed inhibitory activity | – | 109 to 111 °C (dec.) | > 300 | > 1000 | – | > 1000 | – | – | – |
